melting point	SMILES
56 to 57 °C	CCOP(=O)(OCC)C(CC(NC(=O)OC(C)(C)C)C(=O)c1ccccc1)P(=O)(OCC)OCC (centres undefined)
181 to 183 °C	COc1ccc([N+](=O)[O-])c2c1OCC(C(=O)O)C2 (centres undefined)
103 to 105 °C	CS(=O)(=O)c1ccc(-c2cnn(-c3cccc(C(F)(F)F)c3)c(=O)c2-c2ccc(Cl)cc2)cc1
254 °C	CC(C)(C)c1ccc(COc2cc(C(O)C#Cc3ccc(C(=O)O)cc3)cc3c2C(C)(C)CCC3(C)C)cc1 (centres undefined)
222 to 224 °C	Cc1cc(-c2nnc3c4ccccc4c(OCc4ccncn4)nn23)no1
254 to 255 °C	CCCCc1nc2cc(Br)cc(C(=O)O)c2n1Cc1ccccc1Cl
184 to 185 °C	Cc1cn(Cc2ccc(F)cc2)c(C)c1C(=O)CC(=O)C(=O)O
325 to 327 °C	O=C(O)c1c[nH]c2c(=O)c3cc(Cl)ccc3oc2c1=O
108 to 110 °C	O=C1NC(=O)C(c2cn3c4c(cccc24)CCC3)C1c1cccc(O)c1 (centres undefined)
190 to 192 °C	Cc1ncncc1NC(=O)Nc1ccc(-n2nc(C(F)(F)F)cc2C2CC2)cc1
94 to 96 °C	CC(C)(C)c1ccc2c(c1)C(=O)CC2
152 to 155 °C	COc1ccc(CNc2nc(NCCCc3cccc(C(C)=O)c3)nc3ncccc23)cc1OC
223 to 226 °C	c1cc(Nc2nnc3c4c(cccc24)-c2ccccc2-3)cc(-n2ccnc2)c1
37 °C	BrC1COCOCC1Br (centres undefined)
135 to 137 °C	CCOC(=O)C=C1CSC(=N)N1N
100 to 106 °C	COc1ccc(-c2cc(OCC3CO3)c3ccccc3n2)cc1 (racemic)
195 to 197 °C	O=C(O)CCCOc1ccc(C2=NNC(=O)CC2)cc1Cl
141 to 143 °C	Cc1cc(OCc2sc(-c3ccc(C(F)(F)F)cc3)nc2C)ccc1CCC(=O)O
139 to 141 °C	CC(C)(C)c1onc(NS(=O)(=O)c2ccccc2)c1Br

melting point	SMILES
124 to 126 °C	Cc1ccccc1C(O)c1nnn[nH]1 (racemic)
150 to 152 °C	NC(=O)c1cccc(-c2ccc(Oc3ccc(F)cc3)cc2)n1
268 to 269 °C	Cc1[nH]c(=S)[nH]c1C(=O)c1ccccc1
129 to 130 °C	CN(C)C(=O)Nc1ccc(OCCCC(=O)c2ccccc2)c(Cl)c1
224 to 226 °C	CCCn1c(=O)c2c(NC)n[nH]c2n(CCOCc2ccccc2)c1=O
187 to 189 °C	COc1ccc(C(=O)CCC(=O)O)cc1Cl
56 to 57 °C	Clc1cncc(-n2ccc3ccccc32)c1
119 to 121 °C	O=C(CC(CNS(=O)(=O)c1ccc(Oc2ccccc2)cc1)c1ccc(Cl)cc1)Nc1ccc(C(=O)O)cc1 (centres undefined)
120 to 121 °C	CCOc1cccc(-n2cnc(-c3nc(CC)no3)c2)c1
115 to 116 °C	CC(C)(C)c1cc(CCC(CCc2cc(C(C)(C)C)c(O)c(C(C)(C)C)c2)OC(=O)c2ccccc2)cc(C(C)(C)C)c1O
158 to 160 °C	O=C(NCc1ccco1)Nc1cc(N2CC(c3ccccc3)CC2=O)ccn1 (centres undefined)
106 to 108 °C	O=C(c1ccc2nonc2c1)N1CC2C=CC1C2 (centres undefined)
198 to 200 °C	CS(=O)c1cccc2c1CC(=O)N2C(N)=O (centres undefined)
144 to 146 °C	CC(C)(C)OC(=O)Nc1cc(N2CCC(OC3CCCCO3)CC2)c(-c2ccc(F)cc2)cc1[N+](=O)[O-] (racemic)
101 °C	CCOC(=O)C1=C(COCCOc2ncccn2)NC(C)=C(C(=O)OC)C1c1ccccc1Cl (centres undefined)
148 to 149 °C	CCC(=O)N(C)c1cccc(C(=O)C=CN(C)C)c1
148 to 149 °C	CC(C)C(=O)NCCNCC(O)COc1ccc(O)c(CO)c1 (centres undefined)
93 to 95 °C	COc1cc(C(=O)N2CCCC(CCN3CCC(C(=O)c4nc5ccccc5n4Cc4ccc(F)cc4)CC3)(c3ccc(Cl)c(Cl)c3)C2)cc(OC)c1OC (centres undefined)

More lines, now with the values behind:

SMILES	melting point
C=CCNc1nc(Cl)nc(N(CCCCCCN(c2nc(Cl)nc(NCC=C)n2)C2CC(C)(C)NC(C)(C)C2)C2CC(C)(C)NC(C)(C)C2)n1	210 to 211 °C
NC(=O)c1ccc(C(=C2CC3CCC(C2)N3CCc2ccccc2)c2ccccc2)cc1	210 to 212 °C
CCOC(CC)c1ccc(Cl)c2nc3n(c12)CCCN3c1ccc(Cl)cc1Cl (centres undefined)	108 to 110 °C
CCOC(=O)OC1CCN(C(=O)Cn2c(=O)sc3ccc(Cl)cc32)CC1	196 to 197 °C
N#CCc1ccc(OCCc2coc(-c3ccccc3)n2)cc1	81 to 83 °C
CC(C)C1=C(C#N)C(c2cccc(C#N)c2Br)c2c[nH]nc2N1 (centres undefined)	> 250 °C
C#CCC1CC2C3CCC(=O)C3(C)CCC2C2(C)CCC(=O)C=C12 (centres undefined)	145 to 146 °C
O=S1CCN(c2ccc(-n3cc(CN=C=S)nn3)cc2F)CC1	182 to 184 °C
Nc1nc(O)c2c(n1)NC[C@H](CCc1ccc(Br)cc1)C2	275 to 283 °C
c1ccc(C2(N3CCC(n4c(OC5CCNCC5)nc5ccccc54)CC3)CCCCCC2)cc1	114 to 118 °C
COc1ccc(Cl)cc1C(=O)NCCc1ccc(CCCCCCC(=O)O)cc1	36 °C
Cc1ccc(C)c(OCCC(O)C(C)(C)C(=O)O)c1 (centres undefined)	100 °C
COc1ccc2c(Cl)noc2c1Br	134 to 135 °C
O=C(CN1C(=O)C(NC(=O)OCc2ccccc2)N=C(c2ccccc2)c2ccccc21)NCc1ccccc1 (centres undefined)	204 to 205 °C
CNC(Cc1ccccc1)C(=O)N[C@@H](Cc1cccc2ccccc12)C(=O)O (some centres undefined)	104 to 107 °C
CC(C)(C)c1cc(/C=C/c2nnc(N)o2)cc(C(C)(C)C)c1O	221 °C
Cc1c(C(=O)C(N)=O)c2c(OCC(=O)O)cc3c(c2n1Cc1ccccc1)CCC3	255 to 257 °C
CC(=O)[C@@H]1C/C=C(/C)C/C=C/[C@H](C)[C@H](O[Si](C)(C)C(C)(C)C)[C@@H](C)C(=O)C(C)(C)[C@@H](O[Si](C)(C)C(C)(C)C)CC(=O)O1	85 °C
COC(=O)COc1cc2c(c3c1c(C(=O)C(N)=O)c(C)n3Cc1ccccc1Br)CCC2	200 to 207 °C
Oc1cc2ncnc(Nc3cccc(Cl)c3)c2cc1O	233 to 235 °C
CC(C)(C)c1cc(Cc2c(S)ccc3ccccc23)cc(C(C)(C)C)c1O	30 °C

SMILES	melting point
CCOc1cc(-c2cc(C(F)F)n3ncc(C(=O)O)c3n2)ccc1C(F)(F)F	247 °C
Cc1cccc(S(=O)(=O)n2c(CCCC(=O)O)cc3nc(Cl)ccc32)c1	165 °C
Cc1ccc(C(=O)OCn2c(Br)c(Br)c(S(=O)(=O)C(F)(F)F)c2-c2ccc(Cl)cc2)cc1	74 to 78 °C
O=C(O)C1=Cc2ccc(O)cc2CC1	195 to 197 °C
COc1ccc(F)cc1C(C)(C)CC(O)(C(=O)O)C(F)(F)F (centres undefined)	102 to 104 °C
O=c1c2cc(F)c(Cl)nc2n(-c2cccc(C(F)(F)F)c2)c(=O)n1OCc1ccccc1	207 to 208 °C
COCCOc1cc(N(C)S(=O)(=O)c2cccs2)c2[nH]c(C(=O)O)cc2c1	198 to 199 °C
COCc1cnn(-c2c(Cl)cc(C(F)(F)F)cc2Cl)n1	32 to 33 °C
COc1cc(/C=C(\C)C(=O)O)c2cccc(C(C)C)c2c1O	195 to 196 °C
NC(=O)c1sc(Nc2ccc(Cl)cc2)c2c1CCc1cnoc1-2	224 to 225 °C
CCOC(=O)CC1OC(=O)c2c(Oc3nc(OC)cc(OC)n3)cccc21 (centres undefined)	150 to 152 °C
OC1CC2(CCNC2)c2ccccc21 (centres undefined)	155 to 158 °C
Cc1nnc(-c2ccccn2)[nH]c1=O	299 to 300 °C
COC1C=C(C)C(=O)CC(C)(C)C1OC(=O)Cc1csc(N)n1 (centres undefined)	116 to 117 °C
O=c1oc(-c2cccc(OCc3ccccc3)c2)cc(O)c1SCCc1ccccc1	126 to 127 °C
CON=C(C1=C(O)C(=O)N(c2ncc(S(=O)(=O)c3ccc([N+](=O)[O-])cc3)s2)C1c1ccc(C(C)C)cc1)c1ccc(C)cc1 (centres undefined)	156 °C
COC(=O)c1ccc2ccc(S(=O)(=O)N(Cc3ccccc3)Cc3ccccc3)cc2c1	141 to 142 °C
COc1ccc(O)c(C(=O)NCCc2ccc([N+](=O)[O-])cc2)c1	200 °C
CCc1[nH]n(C2CCCC2)c2nc(=S)[nH]c(=O)c1-2	248 to 250 °C
CC(=O)NC1=NN(c2cccc(C)c2)CC1	222 to 225 °C
CC(=O)OCC1OC(n2cc(C(N)=S)nn2)C(OC(C)=O)C1OC(C)=O (centres undefined)	110 to 112 °C

SMILES	melting point
O=C(Nc1nnc(C(F)(F)F)o1)C(c1ccccc1)c1ccccc1	149 to 150 °C
Cc1nc(-c2cccc([N+](=O)[O-])c2)sc1C(=O)O	235 to 236 °C
CCS(=O)(=O)CCC(=O)NNC(=O)N1Cc2ccccc2Oc2c(Cl)cccc21	209 to 211 °C
Cc1ccc(S(=O)(=O)OCC2Cc3cccc(-c4ccc(Cl)cc4)c3O2)cc1 (centres undefined)	130 to 133 °C
CCC(=O)Nc1ccnn1-c1c(Cl)cc(Cl)cc1Cl	125 °C
c1ccc(-c2ccccc2OCCCCOc2ccccc2-c2ccccc2)cc1	62 to 67 °C
O=c1ccc2cc(-c3ccccc3)ccc2n1O	219 to 220 °C
CCOC(=O)c1csc(-c2ncccc2O)n1	131 to 134 °C
O=C(Cl)c1cc(Cl)c(Cl)c(Cl)n1	60 to 62 °C
CC(C)(C)C12COC(CCCCBr)(OC1)OC2	111 to 115 °C
CC1=C(C)c2cc(Br)ccc2Oc2ccccc21	112 to 114 °C
Oc1ccc(C2=NCCO2)cc1	162 to 163 °C
CC(=O)NCCCc1c(N)ccc2c1C(=O)c1ccccc1C2=O	202 °C
O=C1CCCN1Cc1ccc2ccn(C3CCN(CCc4ccc(F)cc4)CC3)c2c1	106 to 108 °C
COc1nccc2oc(S(N)(=O)=O)cc12	180 to 182 °C
Brc1cnc(N=C(c2ccccc2)c2ccccc2)s1	109 °C
CNC(=O)N1N=C(c2ccc([N+](=O)[O-])cc2)c2ccc(Cl)cc2CC1C (centres undefined)	224 to 226 °C
COC(=O)c1ccc(C=O)s1	79 °C
Nc1cc([N+](=O)[O-])cc2c1CCCC2	77 °C
CC(C)(C)c1ccccc1N1CCN(C(=O)CCC#N)CC1	109 to 110 °C
